Data: patent US20190070128A1, “USE OF CANNABIDIVARIN IN THE TREATMENT OF AUTISM SPECTRUM DISORDER, ASSOCIATED DISORDERS AND SCHIZOPHRENIA” (GW Research Limited, priority 2016, published 2019)

Tested on: MeCP2 KO mice
Test: symptom scoring in MeCP2 KO mice
Format: in vivo, mouse
Protocol: Starting from PND 28, mice received a daily intraperitoneal injection of CBDV (or vehicle) at the dose of 2, 20 and 200 mg/kg. Animals were then scored every other day to evaluate the effect of CBDV treatment on motor symptoms (hindlimb clasping, gait, mobility) as well as neurological signs and general conditions (breathing abnormalities, tremors and general condition) present in MeCP2 knockout (KO) mice.
Each of the six symptoms was scored from 0 to 2 (0 corresponds to the symptom being absent or the same as in the wild type (WT) animal; 1 when the symptom was present; 2 when the symptom was severe).
Mobility: the mouse is observed when placed on bench, then when handled gently. 0 =as WT. 1=reduced movement when compared with WT: extended freezing period when first placed on bench and longer periods spent immobile. 2=no spontaneous movement when placed on the bench; mouse can move in response to a gentle prod or a food pellet placed nearby.
Gait: 0=as WT. 1=hind legs are spread wider than WT when walking or running with reduced pelvic elevation, resulting in a ‘waddling’ gait. 2=more severe abnormalities: tremor when feet are lifted, walks backward or ‘bunny hops’ by lifting both rear feet at once.
Hindlimb clasping: mouse observed when suspend by holding base of the tail. 0=legs splayed outward. 1=hindlimbs are drawn toward each other (without touching) or one leg is drawn into the body. 2=both legs are pulled in tightly, either touching each other or touching the body.
Tremor: mouse observed while standing on the flat palm of the hand. 0=no tremor. 1=intermittent mild tremor. 2=continuous tremor or intermittent violent tremor.
Breathing: movement of flanks observed while animal is standing still. 0=normal breathing. 1=periods of regular breathing interspersed with short periods of more rapid breathing or with pauses in breathing. 2=very irregular breathing-gasping or panting.
General condition: mouse observed for indicators of general well-being such as coat condition, eyes and body stance. 0=clean shiny coat, clear eyes, and normal stance. 1=eyes dull, coat dull/un-groomed, and somewhat hunched stance. 2=eyes crusted or narrowed, piloerection, and hunched posture.

C=C(C)[C@@H]1CCC(C)=C[C@H]1c1c(O)cc(CCC)cc1O [CBDV, Cannabidivarin]
mobility: reached statistical significance only at PND 64 | breathing (2 mg/kg, PND 56 to 60): significantly improve | tremors (2 mg/kg, PND 63): still protective | total symptom score (2 mg/kg, every time point (PND 45, 47, 49, 55, 56, 57, 58, 60 and 64)): significantly improved | general conditions (coat and eyes conditions) (20 mg/kg, PND 52): significantly effective only at the earlier time point | hindlimb clasping (200 mg/kg): did not significantly affect | gait (200 mg/kg, PND 53 to 57): significantly improved | tremors (200 mg/kg, PND 55 and 63): still able to reduce tremors | breathing (200 mg/kg, PND 57 and 60): effective | total symptom score (200 mg/kg, from PND 47 until PND 58): beneficial effect | general conditions (coat and eyes conditions) (2 and 200 mg/kg, PND 52-64): significantly improved | tremors (all three doses, PND 45-49): significantly delaying and reducing | total symptom score: appearance of the phenotype (all three doses, vs KO-vehicle): delay and attenuate | hindlimb clasping (lower doses, PND 47 and 49): significantly attenuate
